Data set [1] relates to Wnt pathway and the Notch pathway. As to the kind of experiment: qPCR of ATOH1, HES1, AXIN2, CTNNB1 during differentiation of hIEC progenitors into functional hIECs. The format is cell-based, human. To be noted: 2 μM Wnt-059 and 1 mM valproic acid together in hIEC differentiation medium 2; functional vs immature hIECs; FIG. 7. The source says:
To identify effects of Wnt-059 and valproic acid, which belong to the components of the hIEC differentiation medium 2 in Example 2, on the Wnt pathway and the Notch pathway during differentiation of hIEC progenitors into functional hIECs, expression levels of ATOH1, HES1, AXN2, and CTNNB1 genes in human small intestine (hSI) tissue, immature hIECs, and functional hIECs were checked through qPCR analysis. Here, inactivation of the Wnt pathway and activation of the Notch pathway inhibited differentiation of ISCs into secretory cells. qPCR was performed in the same manner as in Experimental Example 1, and the primers used are shown in Table 3 below.

The nature of another data set: in vitro. The format is in vitro ADME, human. To be noted: human. The method, then: (§1) The cells were prepared in the same manner as in Experimental Example 6.1. The functional hIECs and the Caco-2 cell line were washed 3 times with a transport buffer. […] The concentration of each compound in the sample was analyzed using LC-MS/MS. The apparent permeability coefficient was calculated according to the following equation. [formula] In the equation, dQ/dt, A, and C0 represent a transport rate, a surface area of the insert, and an initial concentration of the compound in the donor compartment, respectively. Chromatographic quantification of each compound was performed using an LC-tandem mass spectrometry system equipped with Shimadzu Prominence UPLC system (Shimadzu, Kyoto, Japan) and API 2000 QTRAP mass spectrometer (Applied Biosystems, Foster City, CA, USA). […] Then, an aliquot (10 μl) of the supernatant was injected directly into the LC-MS/MS system. Separation was performed using a Waters XTerra MS C18 column (2.1×50 mm, 5 μm, Milford, MA, USA) with a concentration gradient of 0.1% formic acid in acetonitrile and 0.1% formic acid in water at a flow rate of 0.4 ml/min. Transitions were made as follows to detect the analyte: […]

Another data set relates to functional hIECs. As to the kind of experiment: in vitro. As to conditions: Caco-2. The format is in vitro ADME, human. The protocol:
as §1

A further data set has as its system Caco-2 cell line. As to the kind of experiment: in vitro. The format is in vitro ADME, human. The protocol:
as §1

The next data set relates to hPSCs. As to the kind of experiment: qPCR of intestinal epithelial marker genes during differentiation of hPSCs into hIEC progenitors. The format is cell-based, human. To be noted: component of hIEC differentiation medium 1; FIG. 2. The method, then: In Example 1, to identify effects, on differentiation of the hPSCs into the hIEC progenitors, of R-spondin 1, which is an agonist of Wnt signaling, and insulin in composition of the hIEC differentiation medium 1, expression levels of marker genes related to intestinal epithelial cells were checked through qPCR analysis. Specifically, total RNA and cDNA were prepared using RNeasy kit (Qiagen) and Superscript IV cDNA synthesis kit (Thermo Fisher Scientific Inc.), respectively. qPCR was performed using a 7500 Fast real-time PCR system (Applied Biosystems, Foster City, CA, USA).

On to `Cc1cc(-c2ccc(CC(=O)Nc3ccc(-c4cccnc4)cc3)cc2)ccn1` [Wnt-059, Wnt C-59], for which the “effect on Wnt pathway and Notch pathway (qPCR of ATOH1, AXIN2, CTNNB1, HES1)” value in data set [1] was “inhibited the Wnt pathway and activated the Notch pathway”.

For the molecule `O=C(O)Cc1ccccc1Nc1c(Cl)cccc1Cl` [diclofenac], the Papp A→B at 2 h was 9.82 ± 0.04 ×10⁻⁶ cm/s in the data set “in vitro” and 36.2 ± 1.49 ×10⁻⁶ cm/s in the data set “in vitro” (Caco-2).

In the case of `COCCc1ccc(OCC(O)CNC(C)C)cc1` (centres unmarked) [metoprolol], the apical-to-basolateral permeability (Papp A→B) at 2 h stood at 11.1 ± 1.15 ×10⁻⁶ cm/s in the data set “in vitro” and 36.5 ± 1.09 ×10⁻⁶ cm/s in the data set “in vitro” (Caco-2).

`CC(C)NCC(O)COc1cccc2ccccc12` (centres unmarked) [propranolol]: the figures for the “Fintestine (fraction absorbed in the human intestine) estimated from Papp” value with functional hIECs and in the data set on Caco-2 cell line were 0.78 and 0.98, respectively. Moreover, the Papp A→B at 2 h came to 11 ± 1.28 ×10⁻⁶ cm/s in “in vitro” and 32.3 ± 2.61 ×10⁻⁶ cm/s in “in vitro” (Caco-2).

In the case of `CNC(=C[N+](=O)[O-])NCCSCc1ccc(CN(C)C)o1` [ranitidine], the Papp A→B at 2 h in “in vitro” came out at 6.98 ± 0.66 ×10⁻⁶ cm/s; in “in vitro” (Caco-2) it was 0.98 ± 0.02 ×10⁻⁶ cm/s.

As to `CCCC(CCC)C(=O)O` [valproic acid], the “effect on Wnt pathway and Notch pathway (qPCR of ATOH1, AXIN2, CTNNB1, HES1)” value in data set [1] is “inhibited the Wnt pathway and activated the Notch pathway”.

Regarding “insulin: hormone secreted from beta cells of the islet of Langerhans; component of hIEC differentiation medium 1”, the “effect on expression of intestinal epithelial marker genes (qPCR)” value in the data set on hPSCs was “increased expression of VIL1 and ANPEP”.

B1: R-spondin 1: secreted protein encoded by Rspo1 gene, can promote Wnt/β catenin signals; agonist of Wnt signaling (protein, UniProt Q2MKA7 21-263, looked up)
R-spondin-1: SRGIKGKRQRRISAEGSQACAKGCELCSEVNGCLKCSPKLFILLERNDIRQVGVCLPSCPPGYFDARNPDMNKCIKCKIEHCEACFSHNFCTKCKEGLYLHKGRCYPACPEGSSAANGTMECSSPAQCEMSEWSPWGPCSKKQQLCGFRRGSEERTRRVLHAPVGDHAACSDTKETRRCTVRRVPCPEGQKRRKGGQGRRENANRNLARKESKEAGAGSRRRKGQQQQQQQGTVGPLTSAGPA
B1: in the data set on hPSCs, the “effect on expression of intestinal epithelial marker genes (qPCR)” value is given as “increased expression of markers of major cell types in the intestinal epithelium”.

(Values after patent US12344862B2, “Human intestinal epithelium model and method for preparing same” (KOREA RESEARCH INSTITUTE OF BIOSCIENCE AND BIOTECHNOLOGY, priority 2020, dated 2025).)
